“And” between values parts separate entries of the source, which are not always exact repeats. Equal entries are not always repeated. The source made the active and inactive calls.
Legend:
[1] = cytotoxicity toward NIH3T3 fibroblasts, dose response, counter-screen, cell-based, ATP luminescence, mouse fibroblasts (AID 2010); type: functional;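 also: cells exposed to compound for about 90 hours before reading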
[2] = inhibitors of intracellular T. cruzi replication, confirmation, NIH3T3 host cells, beta-gal luminescence (AID 2044); type: functional, cell-based;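 also: intracellular parasites grown in NIH/3T3 mouse fibroblasts as host cells; luminescent beta-galactosidase reporter signal from transgenic T. cruzi replicating inside host cells; inhibitors lower the luminescence signal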
[3] = target: T1, Heat shock factor protein 1 (Mus musculus, UniProt P38532); assay: inhibition of MG132-induced HSE-luciferase signal, confirmation, cell-based, NIH3T3, luminescence, dose retest (AID 2382); type: functional;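 also: NIH3T3 fibroblasts with HSF1-driven luciferase reporter stressed by proteasome inhibitor MG132; luminescence from HSF1-driven luciferase expression after 8 hours of MG132 stress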
T1 sequence (P38532 whole entry): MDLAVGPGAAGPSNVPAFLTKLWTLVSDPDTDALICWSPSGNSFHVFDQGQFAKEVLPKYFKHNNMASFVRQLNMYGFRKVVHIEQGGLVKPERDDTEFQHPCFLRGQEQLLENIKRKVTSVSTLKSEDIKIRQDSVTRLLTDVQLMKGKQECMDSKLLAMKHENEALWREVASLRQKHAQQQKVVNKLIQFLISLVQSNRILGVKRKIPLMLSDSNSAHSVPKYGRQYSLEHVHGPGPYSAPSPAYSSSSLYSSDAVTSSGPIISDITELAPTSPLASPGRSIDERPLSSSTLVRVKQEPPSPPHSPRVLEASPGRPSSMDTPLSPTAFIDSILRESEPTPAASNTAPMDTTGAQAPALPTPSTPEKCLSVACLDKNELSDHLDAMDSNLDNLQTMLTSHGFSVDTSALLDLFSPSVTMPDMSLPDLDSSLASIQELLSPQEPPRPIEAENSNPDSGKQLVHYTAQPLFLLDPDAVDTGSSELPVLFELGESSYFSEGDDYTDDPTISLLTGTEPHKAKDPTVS

[4] = tested on: Streptococcus sp. 'group A'; assay: growth inhibition of control SK(-) GAS strain, dose response, counter-screen for streptokinase expression inhibitor project, luminescence, kanamycin, BacTiterGlo, confirmation (AID 1900); type: functional, organism-based
[5] = tested on: Streptococcus; assay: Group A Streptococcus viability loss, dose response, counter-screen for streptokinase expression inhibitor project, luminescence, BacTiterGlo (AID 1915); type: functional, organism-based;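 also: potency for reduction of bacterial viability or growth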
[6] = target: T2, Streptokinase A (Streptococcus pyogenes serotype M1, UniProt P10520); assay: S. pyogenes streptokinase expression inhibitors, potency, dose response, plasminogen activation absorbance, OD405 (AID 1914); type: functional, Streptococcus pyogenes M1 GAS;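 also: secreted streptokinase activity via plasminogen activation per viability signal from cell pellet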
T2 sequence (P10520 whole entry): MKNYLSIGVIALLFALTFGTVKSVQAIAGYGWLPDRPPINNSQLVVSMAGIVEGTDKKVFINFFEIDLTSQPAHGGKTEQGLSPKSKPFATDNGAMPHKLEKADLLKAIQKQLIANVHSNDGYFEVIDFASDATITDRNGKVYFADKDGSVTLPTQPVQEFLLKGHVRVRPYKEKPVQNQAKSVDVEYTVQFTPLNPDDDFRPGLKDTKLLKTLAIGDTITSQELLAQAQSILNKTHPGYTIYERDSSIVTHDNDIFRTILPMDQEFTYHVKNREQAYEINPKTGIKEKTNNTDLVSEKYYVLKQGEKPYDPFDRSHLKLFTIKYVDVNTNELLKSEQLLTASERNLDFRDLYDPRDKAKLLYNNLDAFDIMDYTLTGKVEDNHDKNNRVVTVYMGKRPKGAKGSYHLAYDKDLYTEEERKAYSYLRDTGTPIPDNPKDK

[7] = target: Cytochrome P450 2C9 (Homo sapiens, UniProt P11712)
[8] = target: Cytochrome P450 3A4 (Homo sapiens, UniProt P08684);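 also: CYP3A4 tested as one member of a cytochrome P450 panel screen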
[9] = target: Cytochrome P450 2C19 (Homo sapiens, UniProt P33261); assay: Cytochrome panel assay with activity outcomes. Panel member name: p450-cyp2c19 Compounds with AC50 equal or less than 10 uM are considered active; type: functional
Chain of Cytochrome P450 2C19 (P33261 whole entry): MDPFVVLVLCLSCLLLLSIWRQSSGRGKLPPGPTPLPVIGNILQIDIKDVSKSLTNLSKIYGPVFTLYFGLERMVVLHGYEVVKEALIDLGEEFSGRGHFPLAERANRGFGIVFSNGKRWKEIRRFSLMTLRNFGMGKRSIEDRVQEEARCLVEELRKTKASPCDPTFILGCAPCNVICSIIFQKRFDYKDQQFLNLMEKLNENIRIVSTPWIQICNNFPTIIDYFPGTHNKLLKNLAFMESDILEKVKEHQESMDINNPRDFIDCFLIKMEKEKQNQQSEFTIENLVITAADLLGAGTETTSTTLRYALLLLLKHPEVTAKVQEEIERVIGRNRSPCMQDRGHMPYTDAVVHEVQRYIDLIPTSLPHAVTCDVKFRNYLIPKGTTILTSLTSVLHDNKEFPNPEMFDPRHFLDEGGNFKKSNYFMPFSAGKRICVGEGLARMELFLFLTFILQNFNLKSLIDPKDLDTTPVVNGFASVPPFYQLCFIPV

Chain of Cytochrome P450 3A4 (P08684 whole entry): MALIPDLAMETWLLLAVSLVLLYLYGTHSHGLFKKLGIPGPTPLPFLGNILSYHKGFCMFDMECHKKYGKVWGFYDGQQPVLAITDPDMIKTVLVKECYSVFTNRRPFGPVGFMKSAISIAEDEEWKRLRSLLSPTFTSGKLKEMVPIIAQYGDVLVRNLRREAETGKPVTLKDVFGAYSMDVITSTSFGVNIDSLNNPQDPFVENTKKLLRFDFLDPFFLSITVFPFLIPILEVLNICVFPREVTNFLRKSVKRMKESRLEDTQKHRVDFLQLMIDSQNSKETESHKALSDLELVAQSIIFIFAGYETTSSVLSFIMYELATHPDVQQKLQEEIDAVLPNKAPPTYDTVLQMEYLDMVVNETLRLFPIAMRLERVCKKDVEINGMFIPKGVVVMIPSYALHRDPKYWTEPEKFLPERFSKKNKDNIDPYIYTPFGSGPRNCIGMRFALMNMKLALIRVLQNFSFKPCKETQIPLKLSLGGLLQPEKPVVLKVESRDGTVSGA
Chain of Cytochrome P450 2C9 (P11712 whole entry): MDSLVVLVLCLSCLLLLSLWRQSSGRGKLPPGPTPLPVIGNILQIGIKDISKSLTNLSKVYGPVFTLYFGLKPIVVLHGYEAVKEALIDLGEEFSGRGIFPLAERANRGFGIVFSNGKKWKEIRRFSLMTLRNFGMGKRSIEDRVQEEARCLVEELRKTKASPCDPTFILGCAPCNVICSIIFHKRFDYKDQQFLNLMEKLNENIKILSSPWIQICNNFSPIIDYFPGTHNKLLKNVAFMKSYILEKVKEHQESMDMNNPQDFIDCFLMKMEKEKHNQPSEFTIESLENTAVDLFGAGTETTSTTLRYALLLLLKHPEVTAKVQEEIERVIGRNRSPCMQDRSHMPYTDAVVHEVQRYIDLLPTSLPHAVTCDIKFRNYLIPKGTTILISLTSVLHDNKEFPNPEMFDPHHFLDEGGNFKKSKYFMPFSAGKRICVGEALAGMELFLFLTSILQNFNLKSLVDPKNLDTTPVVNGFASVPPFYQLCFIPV

## COc1ccc(Cl)cc1Nc1nc(-c2cccnc2)cs1
[1]
  EC50: 14 µM (active)
[2]
  EC50: 3.22 µM (active)

## CCCCNC(=O)c1onc(CSc2cccc(Cl)c2)c1C(=O)O
[3]
  EC50: > 195 µM (not active)

## Oc1ccccc1C1CCCCC1c1ccccc1 (stereo not given)
[4]
  EC50: 3.83 µM (active)
[5]
  EC50: 50.4 µM (active)
[6]
  EC50: 12.7 µM (active)

## CCC1CC(CSc2nc[nH]n2)OC1=O (stereo not given)
[7]
  AC50: 25.1 µM (inconclusive)

## COC(=O)c1ccc(NC(=O)c2cc3sccc3n2C)cc1
[7]
  AC50: 10 µM (inconclusive)

## COc1cccc(Nc2ncc3nc(-c4ccc(Cl)cc4)c(=O)n(C[C@H]4CCCO4)c3n2)c1
[8]
  AC50: 15.8 µM (inconclusive)

## Cc1cc(NC2CCCC2)n2nc(C)c(-c3ccccc3)c2n1
[1]
  EC50: > 60 µM (not active)
[2]
  EC50: 3.4 µM (active)

## CCn1c(SCC(=O)Nc2sc3c(c2C#N)CCCC3)nnc1-c1ccco1
[1]
  EC50: > 60 µM (inconclusive)
[2]
  EC50: 1.89 µM (active)

## COc1ccccc1NC(=O)c1ccc(N2CC3CC(C2)c2cccc(=O)n2C3)c(NC(=O)c2ccncc2)c1 (stereo not given)
[3]
  EC50: > 195 µM (not active)

## O=C(NCC1CCCO1)C(c1cccnc1)N(C(=O)Cc1cccs1)c1cccnc1 (stereo not given)
[9]; read-out: AC50
  AC50: 31.6 µM (inconclusive)

## Cc1nn(Cc2ccccc2)c(C)c1NC(=O)c1noc2c1CCc1ccccc1-2
[3]
  EC50: > 195 µM (not active)

## CCCCCCN1N=C(C)C(C(=O)c2ccc(Cl)cc2)C1=O (stereo not given)
[4]
  EC50: 2.44 µM (active)
[5]
  EC50: 29.5 µM (active)
[6]
  EC50: > 150 µM (not active)

## CN(CCc1ccccn1)c1ccc2c(c1)Cc1ccccc1-2
[7]
  AC50: 7.94 µM (inconclusive)

## CC(OC(=O)CN1C(=O)NC2(CCCC2)C1=O)C(=O)c1ccccc1 (stereo not given)
[3]
  EC50: > 195 µM (not active)

## CCO/C(O)=C1\C(C)=Nc2sc(C(=O)c3ccc(Br)cc3)c(N)c2C1c1ccc(C(=O)OC)cc1 (stereo not given)
[1]
  EC50: 15.8 µM (active)
[2]
  EC50: 1.09 µM (active)

## Oc1ccccc1/N=C/c1c(O)ccc2oc3c(c12)CCCC3
[4]
  EC50: 7.61 µM (active)
[5]
  EC50: 10.6 µM (active)
[6]
  EC50: > 150 µM (not active)

## Cc1nn(-c2ccccc2)c(C)c1/C=N/NC(=O)c1cc(C23CC4CC(CC(C4)C2)C3)[nH]n1
[4]
  EC50: 5.31 µM (active)
[5]
  EC50: 46.2 µM (active)
[6]
  EC50: 10.3 µM (active)

## COc1ccc(Cl)cc1C(=O)NNC(=S)NC(=O)c1cc(-c2ccccc2)nc2ccccc12
[4]
  EC50: 1.31 µM (active)
[5]
  EC50: > 150 µM (inconclusive)
[6]
  EC50: > 150 µM (not active)

## Cc1c(C#N)c(/N=C/N(C)C)c(C(=O)c2ccc(Br)cc2)n1-c1ccc(Cl)cc1
[1]
  EC50: > 60 µM (inconclusive)
[2]
  EC50: 2.8 µM (active)

## Cc1ccc(SCCCn2cncn2)cc1
[3]
  EC50: > 195 µM (not active)

## COc1ccc(Cl)cc1C(=O)NNC(=S)NC(=O)c1ccc(F)c(F)c1
[4]
  EC50: 0.217 µM (active)
[5]
  EC50: 1.37 µM (active)

## Cc1cc(OCC(=O)OC(C)C)c2c3c(c(=O)oc2c1)CCCC3
[8]
  AC50: 28.2 µM (inconclusive)

## Fc1ccccc1N=C(S)Nc1ccc(CN2CCOCC2)cc1
[3]
  EC50: 68.4 µM (active)

## CS(=O)(=O)c1cccc(NC(=O)c2ccc(Cl)c(Cl)c2)c1
[1]
  EC50: > 30 µM (not active)
[2]
  EC50: 3.1 µM (active)

## C[C@H](CCC(=O)NN)[C@@H]1CC[C@@H]2[C@H]3CC[C@H]4C[C@@H](O)CC[C@@]4(C)[C@@H]3CC[C@]21C
[9]; read-out: AC50
  AC50: 3.16 µM (inconclusive)

## COc1ccc(-c2oc(NC(=O)CSc3nc[nH]n3)c(C#N)c2-c2ccc(OC)cc2)cc1
[4]
  EC50: 2.37 µM (active)
[5]
  EC50: 16 µM (active)
[6]
  EC50: 1.08 µM (active)

## Cc1ccsc1C(=O)C1CCCN(Cc2ccc(-n3cccn3)cc2)C1 (stereo not given)
[1]
  EC50: > 60 µM (inconclusive)
[2]
  EC50: 0.201 µM (active)

## CC(C)N1CCN(Cc2ccc3nsnc3c2)CC1CCO (stereo not given)
[3]
  EC50: > 195 µM (not active)

## CSc1nc(Cc2ccccc2)cc(=O)[nH]1
[3]
  EC50: > 195 µM (not active)

## O=C(Nc1ccccc1Cc1ccccc1)c1ccncc1
[1]
  EC50: > 60 µM (not active)
[2]
  EC50: 0.802 µM (active)

## Cc1cccc(C(=O)NC2CCN(C(=O)Nc3ccc(F)cc3)CC2)c1
[3]
  EC50: 32.7 µM (active)

## Nc1ccccc1SCC(=O)Nc1ccc2c(c1)OCCO2
[3]
  EC50: > 195 µM (not active)

## CC(=O)c1cc(C#N)c(Oc2cccc(C(F)(F)F)c2)nc1C
[7]
  AC50: 25.1 µM (inconclusive)

## COC(=O)[C@H]1C[C@@H]1[C@H](NC(=O)c1ccccc1)c1ccccc1
[7]
  AC50: 39.8 µM (inconclusive)

## N#Cc1c(N)n(-c2ccccc2N)c2nc3ccccc3nc12
[3]
  EC50: 11.2 µM (active)

## COc1ncc2nc(-c3cc(F)cc(F)c3)c(=O)n(CCC#N)c2n1
[8]
  AC50: 20 µM (inconclusive)

## CC(=O)c1c(-c2ccc(Cl)cc2Cl)noc1C
[3]
  EC50: > 195 µM (not active)

## Brc1ccc(C2C3=C(Nc4ncnn42)c2ccccc2OC3c2ccncc2)cc1 (stereo not given)
[1]
  EC50: > 60 µM (not active)
[4]
  EC50: 22.4 µM (active)
[2]
  EC50: 4.12 µM (active)
[5]
  EC50: 21.5 µM (active)
[6]
  EC50: > 150 µM (not active)

## Cc1cc(C)cc(NS(=O)(=O)c2ccc(NC(=S)NC(=O)c3cccs3)cc2)c1
[4]
  EC50: 4.5 µM (active)
[5]
  EC50: 50.1 µM (active)
[6]
  EC50: 11.7 µM (active)

## Cc1ccc(S(=O)(=O)n2c3ccccc3c3nnc(C(=O)c4ccccc4)nc32)cc1
[9]; read-out: AC50
  AC50: 0.0126 µM (inconclusive)
[7]
  AC50: 3.16 µM (inconclusive)

## O=C(c1ccc2c(c1)OCO2)C1CCCN(Cc2cccn2-c2cccnc2)C1 (stereo not given)
[1]
  EC50: > 60 µM (not active)
[2]
  EC50: 3.29 µM (active)

## CCCC[C@@H]1CNC(=O)C(=O)N1CCc1cccc2ccccc12
[3]
  EC50: > 195 µM (not active)

## CC(C)(C)NC(=O)C1CC(=O)OC12CCOC(C)(C)C2 (stereo not given)
[3]
  EC50: > 195 µM (not active)

## COCCn1c(C(=O)N(C)C)cc2c1C[C@H]1CN(C(=O)c3ccccc3)[C@@](Cc3ccc(F)cc3)(C(=O)OC)[C@@H]21
[9]; read-out: AC50
  AC50: 39.8 µM (inconclusive)
[7]
  AC50: 25.1 µM (inconclusive)

## O=C(c1c(O)nc2cc(Cl)ccc2c1O)C1CC1
[8]
  AC50: 0.00316 µM (inconclusive)

## COc1ccc(-c2[nH]ncc2N=Nc2cc(C)cc(C)c2)cc1
[4]
  EC50: 23.1 µM (active)
[5]
  EC50: > 150 µM (not active)
[6]
  EC50: > 150 µM (not active)

## Cn1cccc1C(=O)N1CCC2(CCN(Cc3ccc(C#N)cc3)CC2)CC1
[9]; read-out: AC50
  AC50: 0.2 µM (inconclusive)

## CCCNC(=O)OC[C@@H]1O[C@H](CCO/N=C(\C)CCN2CCc3nc(-c4ccccc4)c(-c4ccccc4)cc3C2)C=C[C@@H]1Oc1ccc(OC)cc1
[9]; read-out: AC50
  AC50: 0.316 µM (inconclusive)

## CC[C@@]1(c2ccc(N)cc2)CCC(=O)NC1=O
[8]
  AC50: 12.6 µM (inconclusive) and 10 µM (inconclusive)

## CN1CCN(c2ccc(S(=O)(=O)N3CCCCC3)cc2[N+](=O)[O-])CC1
[1]
  EC50: > 60 µM (not active)
[2]
  EC50: 0.81 µM (active)

## CCOC(=O)c1c(-c2ccc(OC)cc2)csc1NC=C1C(=O)CCCC1=O
[4]
  EC50: 66 µM (active)
[5]
  EC50: 32.7 µM (active)
[6]
  EC50: > 150 µM (not active)

## Cc1ccccc1OCCC(=O)OCC(=O)N1c2ccccc2NC(=O)C1(C)C
[3]
  EC50: > 195 µM (not active)

## O=C(CNCCc1ccc(F)cc1)Nc1cc(F)ccc1F
[3]
  EC50: > 195 µM (not active)

## COc1cccc(-c2cncnc2NC2CCNCC2)c1
[9]
  AC50: inconclusive

## CCOC(=O)c1ccc(NC(=O)c2[nH]cnc2C(=O)N[C@@H](Cc2ccccc2)C(=O)OC(C)(C)C)cc1
[4]
  EC50: 5.26 µM (active)
[5]
  EC50: 44.9 µM (active)
[6]
  EC50: > 150 µM (not active)

## O=C(O)c1cc(-c2ccc(-c3ccc(-c4cc(C(=O)O)c5cc(Cl)ccc5n4)cc3)cc2)nc2ccc(Cl)cc12
[7]
  AC50: 3.16 µM (inconclusive)

## COc1cc(OC)cc(C(=O)N[C@H](C(=O)OCC(=O)N2CCc3ccccc32)C(C)C)c1
[3]
  EC50: > 195 µM (not active)

## CCOC(=O)c1c(-c2ccccc2)nc2ccc(Cl)cn12
[7]
  AC50: 15.8 µM (inconclusive)

— ChEMBL document CHEMBL1201862, “PubChem BioAssay data set” (2004)
